Test: RSV-A Assay : Hep-2 cells, (originally derived from tumors grown in irradiated-cortisonised weanling rats that had been injected with epidermoid carcinoma tissue from a person's larynx, but later found to be indistinguishable from HeLa cells by PCR DNA analysis), were used for the culturing of genotype A, “Long” strain RSV. Flasks were inoculated with RSV and viral stocks were collected once cytopathic effect (CPE) was greater than 90%. Viral stocks in 25% sucrose media were snap frozen using liquid nitrogen to increase viral stability. Viral stock titers were quantified by tissue culture infectious dose 50% (TCID50) using 8,000 cells per well and 3-fold viral dilutions across a 96-well plate, cultured for 4 days. Viral stock titers were also quantified by a plaque forming unit assay, as described elsewhere.Following extensive parameter testing, the final assay is run as follows: Hep-2 cells are seeded into the inner 60 wells of a 96-well plate at 8,000 cells per well in a volume of 50 μL using Growth Media (DMEM without phenol red, 1% L-Glut, 1% Penn/Strep, 1% nonessential amino acids, 10% heat-inactivated FBS). 2-fold serial dilutions of control and test compounds are added to the wells in duplicate in a total volume of 25 μL. Viral stock is then added to the wells at a multiplicity of infection (MOI) of 0.1 in a volume of 25 μL, bringing the total volume of each well to 100 μL. The MOI is calculated using the PFU/mL, or TCID50 if unavailable. Each 96-well plate has a control column of 6 wells with cells and virus but no compound (negative control, max CPE), a column with cells but no compound or virus (positive control, minimum CPE), and a column with no cells or virus or compound (background plate/reagent control). The control wells with cells but no virus are given an additional […], of growth media containing an equal quantity of sucrose as those wells receiving the viral stock in order to keep consistent in media and volume conditions. The outer wells of the plate are filled with 125 μL of moat media (DMEM, 1% Penn/Strep) to act as a thermal and evaporative moat around the test wells. Following a 5-day incubation period, the plates are read using ATPlite (50 uL added per well), which quantifies the amount of ATP (a measure of cell health) present in each well. Assay plates are read using the Envision luminometer.

Structure (SMILES)	EC50 [nM]
N[C@@]1(C(F)(F)F)COc2c1cc([C@@](O)(CNC(=O)c1cc(OC3CC3)c3ncccc3c1)C1CC1)nc2-c1ccc(F)c(Cl)c1	< 200
C[C@](O)(CNC(=O)c1ccc(OC2CC2)c(-c2cccnc2)c1)c1cc2c(c(-c3ccc(F)cc3)n1)OC[C@@]2(N)C(F)(F)F	< 200
N[C@@]1(C(F)(F)F)COc2c1cc([C@@](O)(CNC(=O)c1cc(OC3CC3)c3nn(C4CC4)cc3c1)C1CC1)nc2-c1ccc(F)cc1	< 200
N[C@@]1(C(F)(F)F)COc2c1cc([C@](O)(CO)CNC(=O)c1cc(OC3CC3)c3ncccc3c1)nc2-c1ccc(F)cc1	> 200
COc1cnc(C(=O)NC[C@](O)(c2cc3c(c(-c4ccc(F)cc4)n2)OC[C@@]3(N)C(F)(F)F)C(F)(F)F)cc1OC	> 200
C[C@](O)(CNC(=O)c1ccc(OC2CC2)c(OC2CC2)c1)c1cc2c(c(-c3ccc(F)cc3)n1)OC[C@@]2(N)C(F)(F)F	< 200
COc1cc(C(=O)NC[C@](O)(c2cc3c(c(-c4ccc(F)cc4)n2)OC[C@@]3(NC(=O)CO)C(F)(F)F)C(F)(F)F)ccc1OC1CC1	< 200
N[C@@]1(C(F)(F)F)COc2c1cc([C@@](O)(CNC(=O)c1cc(OC3CC3)c3c(ccc[n+]3[O-])c1)C1CC1)nc2-c1ccc(F)cc1	> 200
COC[C@](O)(CNC(=O)c1ccc(OC2CC2)c(OC)c1)c1cc2c(c(-c3ccc(F)cc3)n1)OC[C@@]2(N)C(F)(F)F	< 200
COc1cc(C(=O)NC[C@](C)(O)c2cc3c(c(-c4ccc(F)cc4)n2)OC[C@@]3(N)C(F)(F)F)ccc1OC1CC1	< 200
COc1cc(C(=O)NC[C@H](O)c2cc3c(c(-c4ccc(F)cc4)n2)OC[C@@]3(N)C(F)(F)F)ccc1OC1CC1	> 200
COC(=O)N[C@@]1(C(F)(F)F)COc2c1cc([C@@](C)(O)CNC(=O)c1ccc(OC3CC3)c(OC)c1)nc2-c1ccc(F)cc1	< 200
COc1cc(C(=O)NC[C@](O)(c2cc3c(c(-c4ccc(F)cc4)n2)OC[C@]3(N)C(F)(F)F)C(F)(F)F)ccc1OCCO	> 200
COc1cc(C(=O)NC[C@](O)(c2cc3c(c(-c4ccc(F)cc4)n2)OC[C@@]3(N)C(F)(F)F)C2CC2)cc2sc(N)nc12	< 200
N[C@@]1(C(F)(F)F)COc2c1cc([C@@](O)(CNC(=O)c1cc(OC3CC3)c3nc(Cl)ccc3c1)C1CC1)nc2-c1ccc(F)cc1	< 200
COc1ccc(C(=O)NC[C@](O)(c2cc3c(c(-c4ccc(F)cc4)n2)OC[C@@]3(N)C(F)(F)F)C(F)(F)F)cc1OC	> 200
COc1cc(C(=O)NC[C@](O)(c2cc3c(c(-c4ccc(F)cc4)n2)OC[C@@]3(N)C(F)(F)F)C2CC2)ccc1OC1CC1	< 200
Cn1cc2cc(C(=O)NC[C@](O)(c3cc4c(c(-c5ccc(F)cc5)n3)OC[C@@]4(N)C(F)(F)F)C3CC3)cc(F)c2n1	< 200
COc1cccc2cc(C(=O)NC[C@](O)(c3cc4c(c(-c5ccc(F)cc5)n3)OC[C@@]4(N)C(F)(F)F)C(F)(F)F)cnc12	> 200
COc1cc(C(=O)NC[C@](O)(c2cc3c(c(-c4ccc(F)cc4)n2)OC[C@@]3(N)C(F)(F)F)C(F)(F)F)nc2ccccc12	> 200
COc1cc(C(=O)NC[C@](C)(O)c2cc3c(c(-c4ccc(F)cc4)n2)OC[C@@]3(NS(=O)(=O)C(C)(C)C)C(F)(F)F)cc2cccnc12	> 200

Structure (SMILES)	EC50 [nM]
COc1cc(F)c(C(=O)NC[C@](O)(c2cc3c(c(-c4ccc(F)cc4)n2)OC[C@@]3(N)C(F)(F)F)C(F)(F)F)cc1OC	> 200
COc1cc(C(=O)NC[C@](O)(c2cc3c(c(-c4ccc(F)cc4)n2)OC[C@@]3(N)C(F)(F)F)C(F)(F)F)ccc1OCC(C)C	> 200
COc1cc(C(=O)NC[C@](O)(c2cc3c(c(-c4ccc(F)cc4)n2)OC[C@@]3(NC(=O)COC(C)=O)C(F)(F)F)C(F)(F)F)ccc1OC1CC1	< 200
Nc1nc2c(F)cc(C(=O)NC[C@](O)(c3cc4c(c(-c5ccc(F)cc5)n3)OC[C@@]4(N)C(F)(F)F)C3CC3)cc2s1	< 200
N[C@@]1(C(F)(F)F)COc2c1cc([C@@](O)(CNC(=O)c1ccc(OC3CC3)c(OC3CC3)c1)C1CC1)nc2-c1ccc(F)cc1	< 200
COc1cc(C(=O)NC[C@](O)(c2cc3c(c(-c4ccc(F)cc4)n2)OC[C@]3(N)C(F)(F)F)C(F)(F)F)ccc1OC1CC1	< 200
COc1cc(C(=O)NC[C@](C)(O)c2cc3c(c(-c4ccc(F)cc4)n2)OC[C@@]3(NC(=N)NC#N)C(F)(F)F)ccc1OC1CC1	< 200
COCCOc1ccc(C(=O)NC[C@](O)(c2cc3c(c(-c4ccc(F)cc4)n2)OC[C@@]3(N)C(F)(F)F)C(F)(F)F)cc1OC	> 200
COc1cc(C(=O)NC[C@@](O)(CF)c2cc3c(c(-c4ccc(F)cc4)n2)OC[C@@]3(N)C(F)(F)F)ccc1OC1CC1	< 200
COc1cc(C(=O)NC[C@](O)(c2cc3c(c(-c4ccc(F)cc4)n2)OC[C@@]3(N)C(F)(F)F)C(C)(C)C)ccc1OC1CC1	> 200
COc1cc(C(=O)NC[C@](O)(c2cc3c(c(-c4ccc(F)cc4)n2)OC[C@@]3(N)C(F)(F)F)C2COC2)ccc1OC1CC1	> 200
C[C@](O)(CNC(=O)c1ccc(OC2CC2)c(OC2CC2)c1)c1cc2c(c(-c3ccc(F)c(Cl)c3)n1)OC[C@@]2(N)C(F)(F)F	< 200
C[C@](O)(CNC(=O)c1cc(OC2CC2)c2ncccc2c1)c1cc2c(c(-c3ccc(F)cc3)n1)OC[C@@]2(N)C(F)(F)F	< 200
COc1cc(C(=O)NC[C@](O)(c2cc3c(c(-c4ccc(F)c(Cl)c4)n2)OC[C@@]3(N)C(F)(F)F)C2CC2)ccc1OC1CC1	< 200
COc1cc(C(=O)NC[C@@](O)(c2cc3c(c(-c4ccc(F)cc4)n2)OC[C@]3(N)C(F)(F)F)C(F)(F)F)ccc1OC1CC1	> 200
COC[C@](O)(CNC(=O)c1cc(OC2CC2)c2ncccc2c1)c1cc2c(c(-c3ccc(F)cc3)n1)OC[C@@]2(N)C(F)(F)F	< 200
COc1cc(C(=O)NCC(C)c2cc3c(c(-c4ccc(F)c(F)c4)n2)OC[C@@]3(N)C(F)(F)F)ccc1OC1CC1 (stereo partly specified)	> 200
COc1cc(C(=O)NC[C@@](O)(c2cc3c(c(-c4ccc(F)cc4)n2)OC[C@]3(N)C(F)(F)F)C(F)(F)F)ccc1OCCO	> 200
C[C@](O)(CNC(=O)c1cc(OC2CC2)c2ncccc2c1)c1cc2c(c(-c3ccc(F)c(Cl)c3)n1)OC[C@@]2(N)C(F)(F)F	> 200
COc1cc(C(=O)NC[C@@](O)(CO)c2cc3c(c(-c4ccc(F)cc4)n2)OC[C@@]3(N)C(F)(F)F)ccc1OC1CC1	< 200
N[C@@]1(C(F)(F)F)COc2c1cc([C@@](O)(CNC(=O)c1cc(OC3CC3)c3nn(C4CC4)cc3c1)C1CC1)nc2-c1ccc(F)c(Cl)c1	< 200

Structure (SMILES)	EC50 [nM]
N[C@@]1(C(F)(F)F)COc2c1cc([C@@](O)(CNC(=O)c1cc(OC3CC3)c3ncccc3c1)C1CC1)nc2-c1ccc(F)cc1	< 200
N[C@@]1(C(F)(F)F)COc2c1cc([C@@](O)(CNC(=O)c1cc(OC3CC3)c3ncccc3c1)C1COC1)nc2-c1ccc(F)cc1	> 200
Nc1nc2ccc(C(=O)NC[C@](O)(c3cc4c(c(-c5ccc(F)cc5)n3)OC[C@@]4(N)C(F)(F)F)C3CC3)cc2s1	< 200
N[C@@]1(C(F)(F)F)COc2c1cc([C@@](O)(CNC(=O)c1ccc(OC3CC3)c(OC3CC3)c1)C1CC1)nc2-c1ccc(F)c(Cl)c1	< 200
N[C@@]1(C(F)(F)F)COc2c1cc([C@@](O)(CNC(=O)c1cc(OC3CC3)c3[nH]c(=O)ccc3c1)C1CC1)nc2-c1ccc(F)cc1	> 200
COc1cc(C(=O)NC[C@](O)(c2cc3c(c(-c4ccc(F)cc4)n2)OC[C@@]3(N)C(F)(F)F)C(F)(F)F)ccc1OC1CC1	< 200
COc1cc(C(=O)NC[C@](O)(c2cc3c(c(-c4ccc(F)cc4)n2)OC[C@]3(N)C(F)(F)F)C(F)(F)F)cc2cccnc12	< 200
N[C@@]1(C(F)(F)F)COc2c1cc([C@@](O)(CNC(=O)c1ccc(OC3CC3)c(OC3CC3)c1)C1CC1)nc2-c1ccc(F)c(F)c1	< 200
COc1cc(C(=O)NC[C@](C)(O)c2cc3c(c(-c4ccc(F)c(Cl)c4)n2)OC[C@@]3(N)C(F)(F)F)ccc1OC1CC1	< 200
Cn1cc2cc(C(=O)NC[C@](O)(c3cc4c(c(-c5ccc(F)cc5)n3)OC[C@@]4(N)C(F)(F)F)C3CC3)cc(OC3CC3)c2n1	< 200
COc1ccc2nc(C(=O)NC[C@](O)(c3cc4c(c(-c5ccc(F)cc5)n3)OC[C@@]4(N)C(F)(F)F)C(F)(F)F)cc(OC)c2c1	> 200
C[C@](O)(CNC(=O)c1ccc(OC2CC2)c(OC2CC2)c1)c1cc2c(c(-c3ccc(F)c(F)c3)n1)OC[C@@]2(N)C(F)(F)F	< 200
COc1cc(C(=O)NC[C@](O)(c2cc3c(c(-c4ccc(F)cc4)n2)OC[C@@]3(N)C(F)(F)F)C(F)(F)F)cc(F)c1OC1CC1	> 200
CC(C)(C)S(=O)(=O)N[C@@]1(C(F)(F)F)COc2c1cc([C@@](C)(O)CNC(=O)c1cc(OC3CC3)c3ncccc3c1)nc2-c1ccc(F)cc1	> 200
COc1cc(C(=O)NC[C@](O)(c2cc3c(c(-c4ccc(F)cc4)n2)OC[C@@]3(N)C(F)(F)F)C2CC2)cc2cccnc12	< 200
COc1cc(C(=O)NC[C@](C)(O)c2cc3c(c(-c4ccc(F)c(F)c4)n2)OC[C@@]3(N)C(F)(F)F)ccc1OC1CC1	< 200
COc1cc(C(=O)NC[C@](O)(c2cc3c(c(-c4ccc(F)cc4)n2)OC[C@@]3(N)C(F)(F)F)C(F)(F)F)cc2cccnc12	< 200
COc1cc(C(=O)NC[C@](C)(O)c2cc3c(c(-c4ccc(F)cc4)n2)OC[C@@]3(N)C(F)(F)F)cc2cccnc12	< 200
COc1cc(C(=O)NC[C@](O)(c2cc3c(c(-c4ccc(F)cc4)n2)OC[C@@]3(N)C(F)(F)F)C(F)(F)F)ccc1C(F)(F)F	> 200
